Experimental data as given in patent publication US6653258B1 (priority 1987, dated 2003).

Key:
[1] = test system: Peanut plants, cv. Tomnut; test: Phytotoxicity on peanut plants, root drench (Table VI); type: in vivo; conditions: for phytotoxicity, linear 0-5 scale, Peanut: 100 ppm root drench, assessed one week after treatment, four replicates
Procedure: Peanut plants, cv. Tomnut, were propagated in John Innes No. 1 compost. […] Uniform, 8-10 day-old plants were selected for the experiments.
Phytotoxicity was assessed on a linear 0- 5 scale where grade 1 ═slight damage and grade 5 ═dead plant.

[2] = test system: Tomato plants, cv. Outdoor Girl; test: Phytotoxicity on tomato plants, spray to maximum retention (Table VII); conditions: for phytotoxicity, linear 0-5 scale, Tomato: assessed one week after treatment, four replicates
[3] = 30 ppm spray to maximum retention
[4] = 100 ppm spray to maximum retention
[5] = 300 ppm spray to maximum retention

Structure (SMILES) | phytotoxicity relative to the unsubstituted comparative compound ([1]; root drench, assessed one week after treatment (conclusion from Table VI)) | phytotoxicity relative to the unsubstituted comparative compound ([2]; sprayed to maximum retention, assessed one week after (final) treatment (conclusion from Table VII)) | phytotoxicity, linear 0-5 scale, Peanut [1] | phytotoxicity, linear 0-5 scale, Tomato [2, 3] | phytotoxicity, linear 0-5 scale, Tomato [2, 4] | phytotoxicity, linear 0-5 scale, Tomato [2, 5]
CO/C=C(/C(=O)OC)c1ccccc1COc1cccc(Cl)c1 [Compound No. 1 of Table I, (E)-methyl 2-[2-(3-chlorophenoxymethyl)phenyl]-3-methoxypropenoate] | less phytotoxic | less phytotoxic | – | – | – | –
CO/C=C(/C(=O)OC)c1ccccc1COc1cccc(Cl)c1 [Compound 1, Table I] | – | – | 0 | 0.75 | 0.63 | 1.5
CO/C=C(/C(=O)OC)c1ccccc1COc1ccc(Cl)cc1 [Compound 23, Table I] | – | – | 0.13 | 0.3 | 1.5 | 2.3
CO/C=C(/C(=O)OC)c1ccccc1COc1ccccc1 [comparative compound, reference compound] | – | – | 1.5 | 2.8 | 3.4 | 3.0
